Results as given in ChEMBL document CHEMBL1135848, “Novel substituted 4-aminomethylpiperidines as potent and selective human beta3-agonists. Part 2: arylethanolaminomethylpiperidines” (Bioorg Med Chem Lett, 2002).
pEC50, pKi: −log10 of the molar value.

Legend:
[1] = target: T1, Beta-1 adrenergic receptor (Homo sapiens, UniProt P08588); assay: Beta-1 adrenergic receptor agonist activity as increased cAMP levels in CHO cells expressing human Beta-1-adrenoceptor; assay type: functional, cell-based
Target sequence in this assay (P08588 whole entry): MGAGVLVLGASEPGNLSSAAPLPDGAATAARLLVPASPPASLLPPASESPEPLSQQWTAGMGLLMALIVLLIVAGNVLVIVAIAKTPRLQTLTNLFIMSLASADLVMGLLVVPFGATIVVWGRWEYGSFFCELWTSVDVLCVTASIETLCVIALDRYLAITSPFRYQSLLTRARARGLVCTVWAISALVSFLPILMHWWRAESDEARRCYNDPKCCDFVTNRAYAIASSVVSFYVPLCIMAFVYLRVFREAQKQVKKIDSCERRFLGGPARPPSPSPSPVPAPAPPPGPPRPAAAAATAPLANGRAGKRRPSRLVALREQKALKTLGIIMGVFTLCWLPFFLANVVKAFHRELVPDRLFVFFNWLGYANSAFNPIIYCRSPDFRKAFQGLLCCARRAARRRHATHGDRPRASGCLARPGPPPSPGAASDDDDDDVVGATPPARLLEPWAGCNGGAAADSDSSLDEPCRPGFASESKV

[2] = target: T2, Beta-3 adrenergic receptor (Homo sapiens, UniProt P13945); assay: Human Beta-3 adrenergic receptor intrinsic activity (IA) as maximal response relative to isoproterenol at […]; assay type: functional
Target sequence in this assay (P13945 whole entry, looked up): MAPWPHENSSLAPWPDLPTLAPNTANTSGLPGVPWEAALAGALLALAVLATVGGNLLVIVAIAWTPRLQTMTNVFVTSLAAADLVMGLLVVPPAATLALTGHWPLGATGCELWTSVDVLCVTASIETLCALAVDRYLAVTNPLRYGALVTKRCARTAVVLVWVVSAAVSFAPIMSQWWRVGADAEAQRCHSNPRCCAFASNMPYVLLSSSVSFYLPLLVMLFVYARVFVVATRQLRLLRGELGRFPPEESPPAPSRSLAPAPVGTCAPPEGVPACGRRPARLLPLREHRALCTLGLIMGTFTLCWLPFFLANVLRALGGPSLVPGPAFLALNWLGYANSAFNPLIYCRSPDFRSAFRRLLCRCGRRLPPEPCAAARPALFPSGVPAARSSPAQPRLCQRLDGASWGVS

[3] = target: T3, Beta-2 adrenergic receptor (Homo sapiens, UniProt P07550); assay: Beta-2 adrenergic receptor agonist activity as increased cAMP levels in CHO cells expressing human Beta-2-adrenoceptor; assay type: functional, cell-based
T3 sequence (P07550 whole entry): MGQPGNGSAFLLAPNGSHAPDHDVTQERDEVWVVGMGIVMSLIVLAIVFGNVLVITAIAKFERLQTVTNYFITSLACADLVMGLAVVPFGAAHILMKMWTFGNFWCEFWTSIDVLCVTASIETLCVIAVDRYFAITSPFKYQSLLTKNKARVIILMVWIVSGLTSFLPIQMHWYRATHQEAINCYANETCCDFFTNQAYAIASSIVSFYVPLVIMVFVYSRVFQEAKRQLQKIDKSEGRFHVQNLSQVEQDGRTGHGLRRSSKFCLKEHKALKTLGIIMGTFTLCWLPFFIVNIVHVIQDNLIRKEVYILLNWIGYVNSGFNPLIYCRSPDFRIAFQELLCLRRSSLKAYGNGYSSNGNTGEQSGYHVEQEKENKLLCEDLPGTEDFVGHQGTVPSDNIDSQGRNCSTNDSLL

[4] = target: T2, Beta-3 adrenergic receptor; assay: Beta-3 adrenergic receptor agonist activity was determined by a measurement of increased cAMP levels in CHO cells expressing human Beta-3-adrenoceptor; IA is Inactive; assay type: functional, cell-based
Target sequence in this assay (P13945 whole entry): as the sequence (P13945 whole entry, looked up) above

[5] = target: T2, Beta-3 adrenergic receptor; assay: Beta-3 adrenergic receptor agonist activity as increased cAMP levels in CHO cells expressing human Beta-3-adrenoceptor; assay type: functional, cell-based
Target sequence in this assay (P13945 whole entry): as the sequence (P13945 whole entry, looked up) above

[6] = target: T2, Beta-3 adrenergic receptor; assay: Evaluated in vivo using transgenic mice containing the human Beta-3-Adrenoceptor and increase in themogenesis was determined; assay type: functional, organism-based; conditions: Mus musculus
Target sequence in this assay (P13945 whole entry, looked up): as above

[7] = target: T1, Beta-1 adrenergic receptor; assay: (§1) Binding affinity of compound against Beta-1 adrenergic receptor was determined; assay type: functional
Target sequence in this assay (P08588 whole entry): as the sequence (P08588 whole entry) above

[8] = target: T3, Beta-2 adrenergic receptor; assay: Binding affinity of compound against Beta-2 adrenergic receptor was determined
[9] = target: T3, Beta-2 adrenergic receptor; assay: Beta-2 adrenergic receptor agonist activity was determined by a measurement of increased cAMP levels in CHO cells expressing human Beta-2 adrenergic receptor; assay type: functional, cell-based
[10] = target: T1, Beta-1 adrenergic receptor; assay: as §1
Target sequence in this assay (P08588 whole entry): as above

[11] = target: T1, Beta-1 adrenergic receptor; assay: Human Beta-1 adrenergic receptor determined as the maximal response divided by the maximal response of isoproterenol at […].; assay type: functional
Target sequence in this assay (P08588 whole entry, looked up): as the sequence (P08588 whole entry) above

| SMILES | pEC50 [1] | Intrinsic activity [2] | pEC50 [3] | pEC50 [5] | further results |
| --- | --- | --- | --- | --- | --- |
| CC(C)C[C@H](NC(=O)c1ccc(N2CCC(CNC[C@H](O)c3ccc(O)c(NS(C)(=O)=O)c3)CC2)cc1)C(=O)O | 5.73 | 1 | 6.00 | – | – |
| CCCCCCCCNC(=O)Nc1ccc(S(=O)(=O)N2CCC(CNC[C@H](O)c3cc(NS(C)(=O)=O)c4[nH]ccc4c3)CC2)cc1 | – | – | – | – | EC50 [4]: Not Active |
| CCCCCCCCNC(=O)Nc1ccc(S(=O)(=O)N2CCC(CNC[C@H](O)c3ccc4[nH]ccc4c3)CC2)cc1 | – | – | – | – | EC50 [4]: Not Active |
| CC(C)N(Cc1cc(F)ccc1F)C(=O)Nc1ccc(S(=O)(=O)N2CCC(CNC[C@H](O)c3ccc(O)c(NS(C)(=O)=O)c3)CC2)cc1 | 5.20 | 0.93 | 7.92 | 7.57 | – |
| CCCCCCCCC(=O)Nc1ccc(S(=O)(=O)N2CCC(CNC[C@H](O)c3ccc(O)c(NS(C)(=O)=O)c3)CC2)cc1 | 6.14 | 1 | 7.52 | 8.22 | Increase [6]: 10%; pKi [7]: 5.18; pKi [8]: 6.85 |
| CS(=O)(=O)Nc1cc([C@@H](O)CNCC2CCN(S(=O)(=O)c3ccc(NC(=O)NCc4cc(F)ccc4F)cc3)CC2)ccc1O | 5.50 | 0.93 | – | 8.30 | pEC50 [9]: 7.52 |
| CS(=O)(=O)Nc1cc([C@@H](O)CNCC2CCN(S(=O)(=O)c3ccc(NC(=O)N[C@@H](Cc4ccccc4)C(=O)O)cc3)CC2)ccc1O | 6.28 | 1.2 | 7.70 | 7.51 | – |
| CS(=O)(=O)Nc1cc([C@@H](O)CNCC2CCN(S(=O)(=O)c3ccc(-n4cc(CC(=O)O)c5ccccc54)cc3)CC2)ccc1O | 7.52 | 0.96 | 7.52 | – | pKi [10]: 6.62; pKi [8]: 6.74 |
| CS(=O)(=O)Nc1cc([C@@H](O)CNCC2CCN(S(=O)(=O)c3ccc(-n4ccc5c(C(=O)O)cccc54)cc3)CC2)ccc1O | 7.30 | 1 | 7.22 | – | – |
| CS(=O)(=O)Nc1cc([C@@H](O)CNCC2CCN(c3ccc(C(=O)N[C@@H](Cc4ccccc4)C(=O)O)cc3)CC2)ccc1O | 6.28 | 1.2 | 4.70 | 7.51 | Intrinsic activity [11]: 0.6 |
| CS(=O)(=O)Nc1cc([C@@H](O)CNCC2CCN(c3ccc(C(=O)N[C@@H](CC(=O)O)C(=O)O)cc3)CC2)ccc1O | 6.24 | 0.95 | 8.30 | – | – |
| CS(=O)(=O)Nc1cc([C@@H](O)CNCC2CCN(S(=O)(=O)c3ccc(-n4cc(C(=O)O)cn4)cc3)CC2)ccc1O | 6.00 | 0.93 | 8.00 | – | – |
